Series [1] is described as follows: Density, pH and surface tension of solutions (capillary method). The format is physicochemical. Particulars: DDW, 25° C., baseline 64.9 dyne/cm. The method, then:
Tween 80 was used as a control surfactant for comparison. Densities were measured on 1 mL fixed volume samples. […] The effect of veldoreotide acetate on the pH of double distilled water (DDW) was the same at all veldoreotide acetate concentrations. The pH of DDW of 5.0 was reduced to pH 4.5. The effect of veldoreotide acetate on the density of DDW (starting density of DDW was 1.003 g/ml) was concentration dependent from 1.4 mg/ml to 21.5 mg/ml with density ranging from 0.986 to 0.998 g/ml respectively. However, at veldoreotide acetate concentrations of 45 and 102 mg/ml the density was increased above the starting density of DDW. […] The effect of veldoreotide acetate on the surface tension of DDW (starting surface tension was 64.9 dyne/cm) was consistent with veldoreotide acetate behaving as a peptide amphiphile (surfactant). The surface tension of DDW was reduced by veldoreotide acetate at maximum from 64.9 to 45 dyne/cm. In order to elucidate the meaning of this effect, Tween 80 was used as a reference surfactant. Other surfactants include Polexamer 188. The reduction of surface tension induced by Tween 80 was in the range of 40% (from 64.9 dyne/cm to about 39 dyne/cm), in comparison to veldoreotide acetate of 30% (from 64.9 dyne/cm to about 45 dyne/cm). Note that, under these experimental conditions; the effect of Tween 80 indicated a concentration-effect relationship. Whereas, the effect of veldoreotide acetate on the reduction of surface tension was at the same range for all concentrations tested.
The data of table 4 show the surface activity of highly concentrated COR005 acetate (200 mg/ml), with or without additives in WFI, which emulates the preparation conditions of the primary emulsion of the microspheres. The results of Test 1 and 2 (Table 4) show the effect of COR005 acetate on the surface tension of water. When COR005 acetate is dissolved in water the surface tension is reduced by about 36%, from 68.5 dyne/cm for the water alone to 44 dyne/cm for the solution of water with CR005 acetate at 200 mg/ml.

The nature of series [2]: in vivo. Further details: species or system rats. Particulars: HSD:Sprague Dawley SD, rat, sc, 3 mg/kg. The procedure:
The lactic acid vehicle for use in the formulations as shown in Table 7 below was prepared as follows: Formulations for injection into rats were prepared as summarized in Table 8. Subject rats (mean weight of about 370 grams per subject) were injected according to the above dosing schedule in groups of 5 rats per treatment. Baseline tail bleed samples were drawn from the rats at 2 days prior to dosing. […] Blood samples were approximately 300 uL of whole blood collected in commercial K3 EDTA-coated tubes. Subject rats were also observed for injection site reactions for up to 5-7 days post-dosing. Blood samples were kept on ice following collection until the time of centrifugation. Blood samples were processed within 60 minutes from blood collection. Samples were centrifuged at 3000 G for 15 minutes in a refrigerated centrifuge (5° C.). Plasma was withdrawn from the tubes after centrifugation and placed into new, appropriately labeled tubes and stored at −65° C. to −80° C. until transfer. […] Veldoreotide acetate standard was serially diluted with methanol:water (1:9) and added to blank rat plasma to generate calibration standards and QC samples. The calibration samples were stored at −70° C. Frozen samples were then thawed to room temperature. Blank plasma and reagent blank (water) were also prepared. For each 100 uL aliquot of sample, calibrator or QC sample, 25 uL (˜100 ng/mL) of internal standard (octreotide acetate) in methanol:water (1:9) and 600 uL of acetonitrile:formic acid (99:1) were added and the samples vortex mixed for 30 seconds. Samples were diluted by mixing 20 uL of plasma sample with 180 uL of blank plasma and aliquotted at 100 uL prior to addition of the internal standard and acetonitrile:formic acid solutions. Samples were then centrifuged for 10 minutes at 14,000 rpm at 8° C. 450 uL of the upper (organic) layer was then transferred to evaporation tubes and evaporated under nitrogen at about 50° C. Samples were then reconstituted in 200 uL of reconstitution solution (water:acetonitrile:formic acid at 70:30:0.2). Samples were centrifuged for 10 minutes at 4000 rpm at 8° C. 160 uL of each sample was withdrawn and placed in an autosampler vial with conic glass insert and analyzed via LC-MS/MS. Veldoreotide acetate plasma concentrations were then plotted and analyzed using standard pharmacokinetic techniques.

Series [3] is described as follows: Pharmacokinetics of IR formulations in minipigs. The format is in vivo. Particulars: minipig, plasma, sc; for bioavailability: read-out: Minipigs absolute BA (F %).
Series [4] in a line: Emulsification of cottonseed oil and water for injection. It is filed as physicochemical. As to conditions: 16.6 weight % cottonseed oil, 74.2 weight % WFI, 9.2 weight % peptide, room temperature. The method, then: Based on its amphiphilic properties, veldoreotide acetate was evaluated by means of emulsion formulation. […] Thus, veldoreotide acetate may be considered a w/o ionic surfactant or hydrotrope with a hydrophilic lipophilic balance (HLB) of 6.
The samples were mixed using 25G syringe and vortexed at room temperature.
Veldoreotide was formulated as a water in oil emulsion using 80% (wt %) cottonseed oil, 20% (wt %) water for injection (WFI) and 1% (wt %) veldoreotide acetate. Specifically, 10 mg of veldoreotide acetate was dissolved in 200 uL WFI in a 5 mL glass vial, 800 mg of cottonseed oil was added and the resulting mixture was stirred under magnetic stirring at room temperature for 15 minutes at 1000 rpm. The emulsion was then viewed under the light microscope and stored under refrigeration. The resulting emulsion was stable and found to be injectable via 27G needle.

Where [5] appears, read: 0.4 mg/kg, IR, SC, 0.4 mg/Kg, DEX:PEP 5:1 saline.
The mark [6] stands for this setting: 0.4 mg/kg, IR, SC, 0.4 mg/Kg, HPB:PEP 15:1 saline.

Where two headings read alike, the source gives them in different places.

In general, Cmax refers to the highest concentration seen after dosing. Regarding `C[C@@H](O)[C@@H]1NC(=O)[C@H](CCCCN)NC(=O)[C@@H](Cc2c[nH]c3ccccc23)NC(=O)[C@H](Cc2c[nH]c3ccccc23)NC(=O)[C@H](Cc2ccccc2)NC(=O)CCCNC(=O)CCCN(CC(N)=O)C(=O)[C@H](Cc2ccccc2)NC1=O` [Veldoreotide, cyclo(-γ-aminobutyryl-L-phenylalanyl-L-tryptophanyl-D-tryptophanyl-L-lysyl-L-threonyl-L-phenylalanyl-N-carbamoylmethyl-γ-aminobutyryl)], the “reduction of surface tension of water” value in series [1] is “more than 30%”. For the same compound, the Cmax came out at 544 ng/mL in series [2] (Rats Cmax (ng/ml)); 345 ng/mL in series [2] (pH 4, Rats Cmax (ng/ml)); 238 ng/mL in series [3] (setting [5]); 255 ng/mL in series [3] (setting [6]); 108 ng/mL in series [3] (0.4 mg/kg, pH 4, IR, Lactic acid buffer pH 4). For the same compound, the bioavailability in series [3] (0.1 mg/kg, IR, SC, 0.1 mg/Kg, DEX:PEP 5:1 saline) turned out to be 91%; in series [3] (0.1 mg/kg, pH 4, IR, SC, 0.1 mg/Kg, Lactic acid buffer pH 4) it was 45%; in series [3] (setting [5]), 88.4%; in series [3] (setting [6]), 85.3%; in series [3] (0.4 mg/kg, pH 4, IR, SC, 0.4 mg/Kg, Lactic acid buffer pH 4), 69%. Besides, the emulsification result in series [4] is “allowing an emulsion to form”.

These data come from patent publication US10398751B2, “Pharmaceutical compositions of water soluble peptides with poor solubility in isotonic conditions and methods for their use” (STRONGBRIDGE IRELAND LIMITED, priority 2016, dated 2019).
